Series [1] relates to SARS-CoV-1. Kind of series: microbe, parasite or virus in culture. The note with it: Severe acute respiratory syndrome coronavirus, Vero. The class given is cell-based, SARS-CoV-1 (SARS-CoV-HKU-39849).
The nature of series [2]: LDH cytotoxicity assay, CC50 determination on Calu-3 cells. The class given is cell-based. Conditions: human. The protocol: In short, 2x10^4 Calu-3 cells were seeded per well in 96-well cell culture plates in IMDM medium containing 10% FBS, 100 units/mL penicillin, and 100 µg/mL streptomycin two days before treatment. Prior to the treatment, the medium was removed, and the cells were washed once with PBS. The cells were subsequently treated in quadruplicates with 600, 500, 400, 350, 300, 250, 200, 150, or 100 µM zapnometinib dissolved in DMSO and diluted in IMDM medium containing 5% FBS, 100 units/mL penicillin, and 100 µg/mL streptomycin. The DMSO concentration upon treatment was 1%. A DMSO control was supplied with 1% DMSO (without zapnometinib). An untreated control (spontaneous LDH release control) was supplied with cell culture medium (5% FBS). Viability assessment with LDH assay was performed after 24 and 48 h treatment. Therefore, 10 µL 10X Lysis Buffer were added to one well of each quadruplicate treatment set (maximum LDH release control) and the plates were incubated 45 min at 37 °C and 5% CO2. […] After 30 min incubation in the dark at RT, 50 µL stop solution were added to the wells and the absorbance was read at 490 nm and 680 nm. The absorbance measured at 680 nm was subtracted from the absorbance at 490 nm and the %Viability was calculated using the following formula: […]

Series [3] relates to cytokine and chemokine levels. Kind of series: RESPIRE Phase 2 trial, cytokines/chemokines in hospitalized COVID-19 patients (MesoScale V-Plex). The class given is in vivo, human. Conditions: vs placebo. From the text:
For standard of care treatment see Supplementary Table 5 .

In series [4] the test system is lymphocytes, T cells and B cells. Kind of series: RESPIRE Phase 2 trial, lymphocytes, T and B cells in blood (flow cytometry). Type of series: in vivo, human. Conditions: 30-day observation period. The protocol:
Patients receiving glucocorticoids as standard of care treatment were excluded from the analyses. Experiments were performed by CheckImmune GmbH according to the companies’ SOPs. In short, presence of lymphocytes, T cells and B cells were determined using Flow cytometry analysis. Fresh whole blood from hospitalized SARS-CoV-2 infected patients was stained with the aforementioned DuraClone antibody panels for 15 min at room-temperature and lysed for 15 min at room temperature following the standard staining protocol. Sample acquisition was carried out using the Navios Flow Cytometer (Beckman Coulter). Data analysis was conducted using Kaluza software before being sent to the LIMS system. This procedure is fit for purpose validated under ISO and GCP guidelines.

Series [5] has as its system Vero E6 cells. The note with it: Vero E6 24 h 5% FBS.
Details of series [6]: method as in PMID 38106555. The note with it: hospitalized COVID-19 patients; cited from earlier work.

Values joined by “and” are separate entries in the source; they are usually repeats but may differ in a detail not shown here. Equal entries are not always repeated. Where two headings read alike, the source gives them in different places.

For orientation: EC50 means the concentration that produces a half-maximal response. A high value points to lower potency in that assay. The term CC50 denotes the concentration at which the toxic effect on the cells reaches its halfway point. Higher therefore signals lower toxicity to the cells. As for `O=C(O)c1ccc(F)c(F)c1Nc1ccc(I)cc1Cl` [zapnometinib], the half-maximal effective concentration (EC50) in series [1] was 33.6 µM and 13.8 µg/mL. The half-maximal cytotoxic concentration (CC50) at 24 h in series [2] (24 h treatment) was 532 µM and 218 µg/mL. Besides, the CC50 at 48 h in series [2] (48 h treatment) was 471 µM and 193 µg/mL. Also, in series [3] (up to day 30), the IL-8/CXCL-8 levels entry was “slight but not statistically significant increase”. Moreover, the TNF-α levels result in series [3] (up to day 30) is “no changes”. Moreover, the MCP-1 levels result in series [3] (up to day 30, 900 mg D1 then 600 mg daily D2-6, p = <0.0001) was “significant reduction”. Further, the IL-6 levels entry in series [3] (up to day 30, p = 0.0017) is given as “significantly reduced”. For the same molecule, the IFNγ levels result in series [3] (up to day 30, p = <0.0001) is reported as “significant reduction”. Further, in series [3] (up to day 30, p = <0.0001), the MIP-1α levels entry is listed as “significant reduction”. Besides, the “Lymphocytes, Increase compared to Placebo” value in series [4] is reported as 44.5%. For the same molecule, the “Plasma B cells, Increase compared to Placebo” value in series [4] worked out at 61.8%. Also, in series [4] (p = 0.0377), the “Memory B cells, Increase compared to Placebo” value is on record as -37.4%. In addition, the “T cells, Increase compared to Placebo” value in series [4] (p = 0.0409) is 73.7%. Also, the “%LDH release compared to maximum LDH release” value in series [5] (0.39 µM) amounted to 0.22%; in series [5] (0.78 µM), 0.17%; in series [5] (1.56 µM), 0.15%; in series [5] (3.13 µM), 0.39%; in series [5] (6.25 µM), 0.13%; in series [5] (12.50 µM) it was 0.09%. The “%LDH release compared to maximum LDH release” value in series [5] (25.00 µM) is -0.04%; in series [5] (50.00 µM), 0.02%; in series [5] (75.00 µM), 0.24%; in series [5] (100.00 µM), 0.26%. Besides, the safety and tolerability result in series [6] was “safe and well-tolerated”.
